In ChEMBL document CHEMBL3046926, “Molecular properties prediction, synthesis, and diuretic activity of phenoxy acetic acid bearing pyrazolines” (2013):

Experiments:
Rattus norvegicus [1] = experiment: Induction of diuresis action in Rattus norvegicus albino (rat) assessed as urinary excretion at 1000 mg/kg, po measured at 0-5 hr after drug administration by standard Lipschitz method against untreated control (reference value: 1 no unit); assay type: functional, Urine
Rattus norvegicus [2] = experiment: Induction of diuresis in Rattus norvegicus albino (rat) assessed as normal saline intake at 1000 mg/kg, po measured at 0-5 hr after drug administration by standard Lipschitz method (reference value: 2.50 +/-0.036 ml); assay type: functional
Rattus norvegicus [3] = experiment: Induction of diuresis in Rattus norvegicus albino (rat) assessed as urinary Cl- excretion at 1000 mg/kg, po measured at 0-5 hr after drug administration by standard Lipschitz method (reference value: 0.46 +/-0.005 mEq/L); assay type: functional, Urine
Rattus norvegicus [4] = experiment: Induction of diuresis in Rattus norvegicus albino (rat) assessed as total urinary output at 1000 mg/kg, po measured at 5-18 hr after drug administration by standard Lipschitz method (reference value: 1.26 +/-0.049 ml); assay type: functional, Urine
Rattus norvegicus [5] = experiment: Induction of diuresis activity in Rattus norvegicus albino (rat) assessed as urinary excretion at 1000 mg/kg, po measured at 0-5 hr after drug administration by standard Lipschitz method against frusemide-treated control (reference value: 0.5 no unit); assay type: functional, Urine
Rattus norvegicus [6] = experiment: Induction of diuresis activity in Rattus norvegicus albino (rat) assessed as urinary excretion at 1000 mg/kg, po measured at 5-18 hr after drug administration by standard Lipschitz method against frusemide-treated control (reference value: 0.2 no unit); assay type: functional, Urine
Rattus norvegicus [7] = experiment: Induction of diuresis in Rattus norvegicus albino (rat) assessed as urinary K+ excretion at 1000 mg/kg, po measured at 0-5 hr after drug administration by standard Lipschitz method (reference value: 0.46 +/-0.006 mEq/L); assay type: functional, Urine
Rattus norvegicus [8] = experiment: Induction of diuresis in Rattus norvegicus albino (rat) assessed as total urinary output at 1000 mg/kg, po measured at 0-5 hr after drug administration by standard Lipschitz method (reference value: 2.46 +/-0.125 ml); assay type: functional, Urine
Rattus norvegicus [9] = experiment: Induction of diuresis in Rattus norvegicus albino (rat) assessed as normal saline intake at 1000 mg/kg, po measured at 5-18 hr after drug administration by standard Lipschitz method (reference value: 2.50 +/-0.036 ml); assay type: functional
Rattus norvegicus [10] = experiment: Induction of diuresis in Rattus norvegicus albino (rat) assessed as urinary K+ excretion at 1000 mg/kg, po measured at 5-18 hr after drug administration by standard Lipschitz method (reference value: 0.22 +/-0.004 mEq/L); assay type: functional, Urine
Rattus norvegicus [11] = experiment: Induction of diuresis in Rattus norvegicus albino (rat) assessed as urinary excretion at 1000 mg/kg, po measured at 0-5 hr after drug administration by standard Lipschitz method (reference value: 98.40%); assay type: functional, Urine
Rattus norvegicus [12] = experiment: Induction of diuresis in Rattus norvegicus albino (rat) assessed as urinary excretion at 1000 mg/kg, po measured at 5-18 hr after drug administration by standard Lipschitz method (reference value: 50.4%); assay type: functional, Urine
Rattus norvegicus [13] = experiment: Induction of diuresis in Rattus norvegicus albino (rat) assessed as urinary Na+ excretion at 1000 mg/kg, po measured at 0-5 hr after drug administration by standard Lipschitz method (reference value: 0.90 +/-0.003 mEq/L); assay type: functional, Urine
Rattus norvegicus [14] = experiment: Induction of diuresis action in Rattus norvegicus albino (rat) assessed as urinary excretion at 1000 mg/kg, po measured at 5-18 hr after drug administration by standard Lipschitz method against untreated control (reference value: 1 no unit); assay type: functional, Urine
Rattus norvegicus [15] = experiment: Induction of diuresis in Rattus norvegicus albino (rat) assessed as urinary Cl- excretion at 1000 mg/kg, po measured at 5-18 hr after drug administration by standard Lipschitz method (reference value: 0.38 +/-0.011 mEq/L); assay type: functional, Urine
Rattus norvegicus [16] = experiment: Induction of diuresis in Rattus norvegicus albino (rat) assessed as urinary Na+ excretion at 1000 mg/kg, po measured at 5-18 hr after drug administration by standard Lipschitz method (reference value: 0.65 +/-0.006 mEq/L); assay type: functional, Urine

`NC(N)=O` [UREA] showed a Ratio (Rattus norvegicus [1]) of 1.9, an Activity (Rattus norvegicus [2]) of 2.73 mL and an Activity (Rattus norvegicus [3]) of 0.95 mEq/L. For the same molecule, the Activity (Rattus norvegicus [4]) was 6.3 mL, the Ratio (Rattus norvegicus [5]) was 0.96 and the Ratio (Rattus norvegicus [6]) was 0.93. The Activity (Rattus norvegicus [7]) was 0.94 mEq/L, the Activity (Rattus norvegicus [8]) was 5.13 mL and the Activity (Rattus norvegicus [9]) was 2.73 mL. The Activity (Rattus norvegicus [10]) was 2.82 mEq/L, the Activity (Rattus norvegicus [11]) was 187.91% and the Activity (Rattus norvegicus [12]) was 230.76%. The Activity (Rattus norvegicus [13]) was 1.91 mEq/L, the Ratio (Rattus norvegicus [14]) was 4.6 and the Activity (Rattus norvegicus [15]) was 1.94 mEq/L. For the same molecule, the Activity (Rattus norvegicus [16]) was 2.82 mEq/L.
